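These data come from cells grown in 96-well plates and exposed to compound for 48 hours at five concentrations. At the GI50, growth is halved.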 Calls of active or inactive are those of the source. Cut-off read from the data, not from the text of the source: active = GI50 up to about 1.1 µM and inactive = higher.
How the values were obtained:
Assay in all cases: NCI anticancer screen, dose series, 48 h
A498 = system: A498
K562 = system: K562
OVCAR-3 = system: OVCAR-3
TK-10 = system: TK-10
HOP-62 = system: HOP-62
SN12C = system: SN12C
CCRF-CEM = system: CCRF-CEM
SK-MEL-5 = system: SK-MEL-5
NCI-H522 = system: NCI-H522
COLO 205 = system: COLO 205
HCC 2998 = system: HCC 2998
MOLT-4 = system: MOLT-4
HOP-18 = system: HOP-18
HCT-15 = system: HCT-15
UACC-257 = system: UACC-257
Malme-3M = system: Malme-3M
SF-295 = system: SF-295
MDA-N = system: MDA-N
MCF7 = system: MCF7
NCI/ADR-RES = system: NCI/ADR-RES

Measured: GI50

Cc1ccccc1-n1c(C)nc(-c2ccccc2)cc1=O
inactive: A498 > 100 µM | K562 > 100 µM | OVCAR-3 > 100 µM | TK-10 > 100 µM | HOP-62 > 100 µM | SN12C > 100 µM | CCRF-CEM > 100 µM | SK-MEL-5 > 100 µM | NCI-H522 > 100 µM | COLO 205 > 100 µM | HCC 2998 > 100 µM | MOLT-4 > 100 µM | HOP-18 > 100 µM | UACC-257 > 100 µM | Malme-3M > 100 µM | SF-295 > 100 µM
> 100 µM: HCT-15

CC1(C)CC(=O)C(CC2C(=O)CCCC2=O)C(=O)C1
inactive: A498 > 100 µM | K562 > 100 µM | OVCAR-3 > 100 µM | TK-10 > 100 µM | HOP-62 > 100 µM | SN12C > 100 µM | CCRF-CEM > 100 µM | SK-MEL-5 > 100 µM | NCI-H522 > 100 µM | COLO 205 > 100 µM | HCC 2998 > 100 µM | MOLT-4 > 100 µM | HOP-18 > 100 µM | UACC-257 > 100 µM | Malme-3M > 100 µM | SF-295 > 100 µM
> 100 µM: HCT-15

CCOC(=O)Cc1nc2ccc3c(c2nc1O)C(=O)c1ccccc1C3=O
inactive: A498 28.4 µM | K562 32.4 µM | OVCAR-3 58.3 µM | TK-10 31.7 µM | HOP-62 28.2 µM | SN12C 23.7 µM | CCRF-CEM 1.95 µM | SK-MEL-5 26.1 µM | NCI-H522 16.8 µM | COLO 205 > 100 µM | HCC 2998 46.7 µM | MOLT-4 5.45 µM | HOP-18 16 µM | UACC-257 65.8 µM | Malme-3M 60.7 µM
25.2 µM: HCT-15

COc1cc(C2[C@H]3C(=O)N(c4ccc(Cc5ccc(N6C(=O)[C@@H]7ON(c8ccccc8)C(c8cc(OC)c(OC)c(OC)c8)[C@@H]7C6=O)cc5)cc4)C(=O)[C@H]3ON2c2ccccc2)cc(OC)c1OC (stereo partly specified)
> 100 µM: HCT-15
inactive: A498 > 100 µM | K562 > 100 µM | OVCAR-3 > 100 µM | TK-10 > 100 µM | HOP-62 > 100 µM | SN12C > 100 µM | CCRF-CEM > 100 µM | SK-MEL-5 38.5 µM | NCI-H522 > 100 µM | COLO 205 > 100 µM | HCC 2998 > 100 µM | MOLT-4 > 100 µM | HOP-18 > 100 µM | UACC-257 > 100 µM | Malme-3M 46.3 µM | SF-295 > 100 µM

Cc1cnc[nH]c1=O
> 100 µM: HCT-15
inactive: A498 > 100 µM | K562 > 100 µM | OVCAR-3 > 100 µM | TK-10 > 100 µM | HOP-62 > 100 µM | SN12C > 100 µM | CCRF-CEM > 100 µM | SK-MEL-5 > 100 µM | NCI-H522 > 100 µM | COLO 205 > 100 µM | HCC 2998 > 100 µM | MOLT-4 > 100 µM | HOP-18 > 100 µM | UACC-257 > 100 µM | Malme-3M > 100 µM | SF-295 > 100 µM

O=S(=O)(NCn1ccc2ccccc21)c1ccccc1
inactive: A498 > 100 µM | K562 > 100 µM | OVCAR-3 > 100 µM | TK-10 > 100 µM | HOP-62 > 100 µM | SN12C > 100 µM | CCRF-CEM > 88.5 µM | SK-MEL-5 > 100 µM | NCI-H522 > 100 µM | COLO 205 > 79.8 µM | HCC 2998 > 100 µM | MOLT-4 > 100 µM | HOP-18 > 100 µM | UACC-257 > 88.7 µM | Malme-3M > 100 µM | SF-295 > 100 µM
> 57.7 µM: HCT-15

COC(=O)C(=O)C(C(=O)C(=O)Nc1ccccc1C(N)=O)c1nc2ccc([N+](=O)[O-])cc2nc1O (stereo unspecified)
> 100 µM: HCT-15
inactive: A498 > 100 µM | K562 > 100 µM | TK-10 > 100 µM | HOP-62 > 100 µM | SN12C > 100 µM | CCRF-CEM > 100 µM | SK-MEL-5 > 100 µM | NCI-H522 > 100 µM | COLO 205 > 100 µM | HCC 2998 > 100 µM | MOLT-4 > 100 µM | HOP-18 > 100 µM | UACC-257 > 100 µM | Malme-3M > 100 µM | SF-295 > 100 µM

Cc1cc(Cl)ccc1Nc1nc2c(s1)C(=O)c1ccccc1C2=O
inactive: A498 22.2 µM | K562 2.41 µM | OVCAR-3 1.43 µM | TK-10 16.9 µM | HOP-62 5.13 µM | SN12C 1.8 µM | CCRF-CEM 2.18 µM | SK-MEL-5 1.82 µM | NCI-H522 1.99 µM | COLO 205 4.33 µM | HCC 2998 6.34 µM | MOLT-4 1.86 µM | HOP-18 3 µM | UACC-257 2.53 µM | Malme-3M 1.45 µM | SF-295 9.12 µM | MCF7 1870 nM
1.85 µM: HCT-15
active: MDA-N 604 nM

C=CCn1cc(C(=O)NC(=O)NCCCCCOC(=O)CCCCCCCCCCC(=O)OCCCCCNC(=O)NC(=O)c2cn(CC=C)c(=O)n(C)c2=O)c(=O)n(C)c1=O
inactive: A498 > 100 µM | K562 > 100 µM | OVCAR-3 > 100 µM | TK-10 > 100 µM | HOP-62 > 100 µM | SN12C > 100 µM | CCRF-CEM > 100 µM | SK-MEL-5 > 100 µM | NCI-H522 > 100 µM | COLO 205 > 100 µM | HCC 2998 > 100 µM | MOLT-4 > 100 µM | HOP-18 71.8 µM | UACC-257 > 100 µM | Malme-3M > 100 µM
> 100 µM: HCT-15

CCC(C)SC1SCC2C(=O)N(C)C3(CC3C)C(=O)OCC(NC(=O)c3nc4ccccc4cc3O)C(=O)NC(C)C(=O)N(C)C1C(=O)N(C)C1(CC1C)C(=O)OCC(NC(=O)c1nc3ccccc3cc1O)C(=O)NC(C)C(=O)N2C (stereo unspecified)
active: A498 0.000102 µM | K562 2.77e-05 µM | NCI/ADR-RES 0.0331 µM | HOP-62 5.64e-05 µM | MDA-N 0.0471 nM | SN12C 4.99e-05 µM | CCRF-CEM 8.73e-05 µM | COLO 205 5.01e-05 µM | HCC 2998 0.000103 µM | MOLT-4 0.000128 µM | HOP-18 0.000232 µM | UACC-257 5.3e-05 µM | Malme-3M 4.12e-05 µM | SF-295 9.91e-05 µM | MCF7 0.012 nM
0.00204 µM: HCT-15

COC(=O)CCC(=O)CC1CC(=O)C2CCCN12 (stereo unspecified)
inactive: A498 > 100 µM | K562 > 100 µM | OVCAR-3 > 100 µM | TK-10 > 100 µM | HOP-62 > 100 µM | SN12C > 100 µM | CCRF-CEM > 100 µM | SK-MEL-5 > 100 µM | NCI-H522 > 100 µM | COLO 205 > 100 µM | HCC 2998 > 100 µM | MOLT-4 > 100 µM | HOP-18 > 100 µM | UACC-257 > 100 µM | Malme-3M > 100 µM | SF-295 > 100 µM

Cc1c2ccncc2c(C)c2c1[nH]c1ccc(OC(C)C)cc12
active: SN12C 1.06 µM | MOLT-4 0.59 µM | HOP-18 0.318 µM
0.984 µM: HCT-15
inactive: A498 1.47 µM | K562 1.13 µM | OVCAR-3 1.61 µM | TK-10 1.91 µM | HOP-62 1.35 µM | CCRF-CEM 1.15 µM | SK-MEL-5 1.77 µM | NCI-H522 1.63 µM | COLO 205 1.32 µM | HCC 2998 2.03 µM | UACC-257 1.82 µM | Malme-3M 1.58 µM | SF-295 1.36 µM

Source: ChEMBL document CHEMBL1201862, “PubChem BioAssay data set” (2004)
